According to US20210346459A1, “Application of Dalargin for the prevention of VRIs and prevention of the development of complications during VRIs” (priority 2020, published 2021):
Values after ≈ are worked out from the molar mass of the structure shown. Like-named read-outs stand apart in the source and are kept apart here. Marks after values point to notes of the source that are not given here.

Columns and labels:
[1] = test system: influenza virus A/California/04/2009; format: in vivo, mice
[2] = test system: influenza virus A/Puerto Rico/8/34 (H1N1); format: in vivo, Balb/c mice; conditions: Group 2: Tamiflu 20 mg/kg once a day intragastrically
[3] = test system: human adenovirus 5
[4] = in vitro; conditions: African green monkey
[5] = test system: human adenovirus 5; experiment: organism not typed; conditions: Vero
[6] = test system: MDCK; experiment: 50% cytotoxic concentration, cell line used for influenza virus; conditions: PR8 (influenza virus) section
[7] = test system: influenza virus A/Puerto Rico/8/34 (H1N1)
[8] = biological target: mu receptors (Homo sapiens, UniProt P35372); conditions: metabolite of Dalargin; cited from earlier work
[9] = Group 2: Ingavirin 15 mg/kg intragastrically once a day, therapeutic
[10] = Group 2: Ingavirin 15 mg/kg intragastrically once a day, therapeutic, 30 animals
[11] = Group 3: Arbidol 130 mg/kg intragastrically once a day, therapeutic
[12] = Group 3: Arbidol 130 mg/kg intragastrically once a day, therapeutic, 30 animals

mu receptors, sequence (P35372 whole entry): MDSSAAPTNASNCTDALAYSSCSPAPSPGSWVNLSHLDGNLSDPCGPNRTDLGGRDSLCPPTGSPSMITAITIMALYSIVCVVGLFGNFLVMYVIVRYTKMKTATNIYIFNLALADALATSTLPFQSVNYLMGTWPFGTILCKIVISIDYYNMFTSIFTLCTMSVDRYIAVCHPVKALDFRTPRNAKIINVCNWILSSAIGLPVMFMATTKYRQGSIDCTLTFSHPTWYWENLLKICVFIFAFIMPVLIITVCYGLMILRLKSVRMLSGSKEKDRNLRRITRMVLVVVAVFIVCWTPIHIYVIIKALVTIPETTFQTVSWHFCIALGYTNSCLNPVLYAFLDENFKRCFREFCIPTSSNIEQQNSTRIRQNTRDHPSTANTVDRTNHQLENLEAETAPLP

O=C(O)CCCC(=O)NCCc1c[nH]cn1 [Ingavirin]
Mortality, % [1, 9]: 53.33% | Protective index, % [1, 9]: 44.83% | Mortality by day 6 [1, 10]: 4 | Mortality by day 7 [1, 10]: 6 | Mortality by day 8 [1, 10]: 3 | Mortality by day 9 [1, 10]: 2 | Mortality by day 10 [1, 10]: 1 | Residue [1, 10]: 14 | Mortality by day 5 ([1]; mouse, in vivo): 3 | Mortality by day 6 ([1]; mouse, in vivo): 4 | Mortality by day 7 ([1]; mouse, in vivo): 4 | Mortality by day 8 ([1]; mouse, in vivo): 7 | Mortality by day 9 ([1]; mouse, in vivo): 4 | Mortality by day 10 ([1]; mouse, in vivo): 2 | Mortality, % ([1]; mouse, in vivo): 80.00% | Protective index, % ([1]; mouse, in vivo): 17.24% | Residue ([1]; mouse, in vivo): 6

CCOC(=O)c1c(CSc2ccccc2)n(C)c2cc(Br)c(O)c(CN(C)C)c12 [Arbidol]
Mortality, % [1, 11]: 70.00% | Protective index, % [1, 11]: 27.59% | Mortality by day 5 [1, 12]: 2 | Mortality by day 6 [1, 12]: 2 | Mortality by day 7 [1, 12]: 7 | Mortality by day 8 [1, 12]: 5 | Mortality by day 9 [1, 12]: 3 | Mortality by day 10 [1, 12]: 2 | Residue [1, 12]: 9

CCOC(=O)C1=C[C@@H](OC(CC)CC)[C@H](NC(C)=O)[C@@H](N)C1 [Tamiflu, oseltamivir]
Mortality, % [2]: 10.00% | Protective index, % [2]: 88.46% | Mortality by day 9 ([2]; 30 animals): 2 | Mortality by day 10 ([2]; 30 animals): 1 | Residue ([2]; 30 animals): 27*

Nc1nc2c(ncn2COCCO)c(=O)[nH]1 [Aciclovir]
SI ([3]; CC50/IC50, Ad5 (adenovirus)): 1 | Antiviral properties (in words) ([3]; adenovirus, Vero): did not exhibit antiviral properties | CC50 [4]: > 30 µg/mL | IC50 [5]: > 30 µg/mL

CC(N)C12CC3CC(CC(C3)C1)C2 (stereo not shown) [Remantadin]
CC50 [6]: 64 µg/mL (≈ 357 µM) | SI ([7]; CC50/IC50, PR8 (influenza virus)): 5 | IC50 ([7]; PR8 (influenza virus), MDCK): 11 µg/mL (≈ 61.3 µM) | Antiviral properties (in words) ([7]; influenza virus, MDCK): did not exhibit antiviral properties

Tyr-D-Ala-Gly-Phe
Affinity to mu receptors [8]: exhibits affinity to mu receptors
